Reference: the supplement of paper PMC10307832

Tests used:
Assay in all cases: relative viability (nuclei count vs DMSO), 5 days (fraction); higher = more cells survive
[1] = compound: C/C(=N\NC(=S)N1CCC1)/C2=CC=CC=N2 + N=C(N)NC(=N)NCCc1ccccc1 [Phenformin] (partner 250 µM)
Outline: (§1)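 A single step with final 0.05% Triton X-100, 1% formaldehyde and 1 ug/ml Hoechst fixed the cells and stained nuclei 5 days after treatment. Lung cancer cell lines in 1536-well plates had been treated by pin tool the day after seeding with one drug alone or a fixed anchor-drug dose plus five library-drug doses (not always all listed) in √10 steps, and nuclei were counted on 4× images. Relative viability is the ratio of nuclei in treated wells to nuclei in vehicle wells, taken as the median of duplicate plates.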

[2] = compound: C/C(=N\NC(=S)N1CCC1)/C2=CC=CC=N2 + CC(=O)Nc1cccc(-n2c(=O)n(C3CC3)c(=O)c3c(Nc4ccc(I)cc4F)n(C)c(=O)c(C)c32)c1 [Trametinib] (partner 0.02 µM)
Outline: as §1

[3] = compound: C/C(=N\NC(=S)N1CCC1)/C2=CC=CC=N2 + COc1cccc2cc(-c3nc([C@H]4CC[C@H](C(=O)O)CC4)n4ncnc(N)c34)[nH]c12 [OSI-027] (partner 0.5 µM)
Outline: as §1

[4] = compound: C/C(=N\NC(=S)N1CCC1)/C2=CC=CC=N2
Outline: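 Viability was read as treated-well nuclei divided by vehicle-well nuclei, using the median across plates. Lung cancer cell lines in 1536-well plates were kept overnight at 37 °C, pinned with five √10-spaced library-drug doses, and after 5 days were Hoechst-stained, imaged at 4× and counted in MetaXpress. Plates passed only with control CV below 25% and at least one doubling.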

Cell Line	relative viability ([1]; first compound 0.05 µM)	relative viability ([1]; first compound 0.1581 µM)	relative viability ([1]; first compound 0.5 µM)	relative viability ([1]; first compound 1.581 µM)	relative viability ([1]; first compound 5 µM)	relative viability ([2]; first compound 0.05 µM)	relative viability ([2]; first compound 0.1581 µM)	relative viability ([2]; first compound 0.5 µM)	relative viability ([2]; first compound 1.581 µM)	relative viability ([2]; first compound 5 µM)	relative viability ([3]; first compound 0.05 µM)	relative viability ([3]; first compound 0.1581 µM)	relative viability ([3]; first compound 0.5 µM)	relative viability ([3]; first compound 1.581 µM)	relative viability ([3]; first compound 5 µM)	relative viability ([4]; 0.05 µM)	relative viability ([4]; 0.1581 µM)	relative viability ([4]; 0.5 µM)	relative viability ([4]; 1.581 µM)	relative viability ([4]; 5 µM)
NCI-H441	0.204	0.16	0.197	0.156	0.187	0.143	0.173	0.154	0.11	0.131	0.181	0.173	0.16	0.143	0.168	0.233	0.175	0.185	0.145	0.123
NCI-H460	0.0303	0.0322	0.0348	0.0156	0.0113	0.0177	0.0199	0.0221	0.0121	0.0173	0.0284	0.0249	0.0234	0.0201	0.0147	0.0678	0.0619	0.0798	0.0529	0.0177
NCI-H520	0.149	0.255	0.168	0.143	0.251	0.101	0.129	0.118	0.123	0.159	0.153	0.192	0.158	0.169	0.242	0.164	0.17	0.141	0.16	0.172
NCI-H522	–	0.27	0.398	–	0.503	0.367	0.334	0.241	0.271	0.364	–	0.341	0.495	–	0.561	0.334	0.389	0.351	0.346	0.358
NCI-H596	0.301	0.391	0.324	0.239	0.259	0.613	0.296	0.293	0.201	0.239	0.259	0.253	0.281	0.226	0.263	0.307	0.311	0.257	0.222	0.263
NCI-H647	0.0392	0.0555	0.125	0.0761	0.0797	0.0951	0.0887	0.127	0.114	0.13	0.0818	0.107	0.109	0.117	0.0913	0.114	0.116	0.136	0.115	0.0991
NCI-H650	0.23	0.277	0.208	0.247	0.189	0.17	0.207	0.204	0.169	0.151	0.162	0.228	0.194	0.211	0.198	0.22	0.232	0.222	0.196	0.175
NCI-H661	0.262	0.269	0.254	0.211	0.231	0.208	0.263	0.26	0.224	0.213	0.243	0.208	0.169	0.188	0.19	0.288	0.32	0.317	0.255	0.262
NCI-H727	0.29	0.314	0.341	0.375	0.382	0.361	0.33	0.358	0.367	0.318	0.229	0.258	0.289	0.244	0.364	0.25	0.235	0.245	0.27	0.272
NCI-H838	0.163	0.171	0.175	0.123	0.139	0.156	0.167	0.157	0.11	0.136	0.167	0.179	0.19	0.129	0.142	0.247	0.255	0.279	0.179	0.185
NCI-H1355	0.266	0.295	0.251	0.263	0.2	0.22	0.191	0.136	0.176	0.17	0.201	0.213	0.208	0.18	0.178	0.204	0.216	0.21	0.197	0.214
NCI-H1395	0.279	0.349	0.364	0.307	0.389	0.425	0.388	0.327	0.381	0.389	0.291	0.388	0.31	0.29	0.364	0.423	0.41	0.336	0.344	0.383
NCI-H1437	0.132	0.182	0.182	0.162	0.159	0.23	0.241	0.194	0.16	0.208	0.19	0.174	0.174	0.135	0.106	0.242	0.235	0.206	0.173	0.155
NCI-H1650	0.122	0.16	0.194	0.14	0.18	0.131	0.176	0.143	0.177	0.146	0.158	0.216	0.17	0.152	0.184	0.18	0.26	0.183	0.173	0.199
NCI-H1651	0.176	0.169	0.185	0.0924	0.0954	0.209	0.156	0.137	0.102	0.0667	0.152	0.165	0.13	0.0837	0.093	0.19	0.175	0.152	0.11	0.105
NCI-H1666	0.467	0.462	0.419	0.433	0.361	0.545	0.558	0.495	0.467	0.5	0.396	0.41	0.383	0.354	0.358	0.433	0.404	0.369	0.349	0.329

Cell Line	relative viability ([1]; first compound 0.05 µM)	relative viability ([1]; first compound 0.1581 µM)	relative viability ([1]; first compound 0.5 µM)	relative viability ([1]; first compound 1.581 µM)	relative viability ([1]; first compound 5 µM)	relative viability ([2]; first compound 0.05 µM)	relative viability ([2]; first compound 0.1581 µM)	relative viability ([2]; first compound 0.5 µM)	relative viability ([2]; first compound 1.581 µM)	relative viability ([2]; first compound 5 µM)	relative viability ([3]; first compound 0.05 µM)	relative viability ([3]; first compound 0.1581 µM)	relative viability ([3]; first compound 0.5 µM)	relative viability ([3]; first compound 1.581 µM)	relative viability ([3]; first compound 5 µM)	relative viability ([4]; 0.05 µM)	relative viability ([4]; 0.1581 µM)	relative viability ([4]; 0.5 µM)	relative viability ([4]; 1.581 µM)	relative viability ([4]; 5 µM)
NCI-H1734	0.147	0.206	0.194	0.12	0.132	0.153	0.154	0.122	0.137	0.116	0.167	0.163	0.179	0.116	0.118	0.184	0.186	0.189	0.13	0.116
NCI-H1755	0.328	0.311	0.288	0.33	0.271	0.551	0.734	0.254	0.284	0.298	0.292	0.288	0.287	0.273	0.228	0.353	0.332	0.321	0.303	0.282
NCI-H1792	0.122	0.096	0.108	0.063	0.0674	0.415	0.101	0.0783	0.0869	0.0954	0.417	0.301	0.25	0.248	0.205	0.362	0.234	0.227	0.184	0.134
NCI-H1793	0.131	0.201	0.188	0.147	0.156	0.308	0.188	0.166	0.142	0.179	0.128	0.176	0.159	0.153	0.142	0.181	0.215	0.176	0.16	0.168
NCI-H1915	0.253	0.231	0.221	0.178	0.179	0.0702	0.0677	0.0851	0.0919	0.112	0.184	0.165	0.176	0.179	0.163	0.237	0.216	0.199	0.179	0.178
NCI-H1944	0.119	0.144	0.127	0.145	0.146	0.32	0.392	0.144	0.147	0.152	0.197	0.192	0.168	0.133	0.12	0.263	0.179	0.19	0.161	0.151
NCI-H1975	0.187	0.187	0.159	0.12	0.133	0.143	0.118	0.105	0.109	0.119	0.137	0.119	0.116	0.105	0.11	0.178	0.179	0.168	0.158	0.185
NCI-H1993	0.524	0.495	0.627	0.581	0.526	0.402	0.374	0.438	0.351	0.45	0.519	0.542	0.516	0.541	0.545	0.472	0.529	0.593	0.499	0.577
NCI-H2009	0.125	0.185	0.221	0.154	0.184	0.108	0.133	0.102	0.0932	0.111	0.0946	0.153	0.17	0.129	0.12	0.122	0.17	0.166	0.156	0.138
NCI-H2023	0.102	0.106	0.0921	0.0767	0.0997	0.0918	0.0896	0.0543	0.069	0.0829	0.0569	0.0687	0.0687	0.0508	0.0603	0.0831	0.0809	0.0814	0.0675	0.0747
NCI-H2085	0.198	0.297	0.243	0.178	0.239	0.183	0.19	0.216	0.153	0.224	0.276	0.214	0.255	0.24	0.187	0.359	0.321	0.357	0.299	0.313
NCI-H2087	0.141	0.156	0.166	0.0953	0.0819	0.104	0.123	0.11	0.108	0.0815	0.132	0.14	0.143	0.122	0.0904	0.16	0.218	0.19	0.165	0.138
NCI-H2126	0.396	0.407	0.364	0.316	0.381	0.299	0.574	0.189	0.183	0.23	0.206	0.225	0.21	0.212	0.205	0.236	0.246	0.214	0.197	0.21
NCI-H2170	0.263	0.26	0.22	0.222	0.153	0.684	0.869	0.186	0.174	0.109	0.34	0.294	0.237	0.217	0.158	0.391	0.282	0.268	0.198	0.176
NCI-H2228	0.127	0.158	0.172	–	0.111	0.124	0.151	0.137	0.0911	0.135	0.116	0.152	0.207	–	0.0944	0.192	0.217	0.21	0.118	0.187
NCI-H2342	0.25	0.232	0.266	0.231	0.25	0.249	0.303	0.227	0.253	0.272	0.288	0.263	0.27	0.264	0.262	0.274	0.277	0.266	0.239	0.259
